{"source": "ChEMBL document CHEMBL3400147", "about": "“New septanoside and 20-hydroxyecdysone septanoside derivative from Atriplex portulacoides roots with preliminary biological activities” (Bioorg Med Chem Lett, 2015)", "key": {"[1]": {"tested_on": "Staphylococcus aureus", "assay": "Antimicrobial activity against Staphylococcus aureus ATCC 25923 incubated for 24 hrs by microtiter plate dilution method", "format": "functional"}, "[2]": {"assay": "Antioxidant activity assessed as DPPH radical scavenging activity incubated for 30 mins by UV absorption spectrometry", "format": "physicochemical"}, "[3]": {"target": "T1, Cholinesterase (Homo sapiens, UniProt P06276)", "T1 sequence (P06276 whole entry)": "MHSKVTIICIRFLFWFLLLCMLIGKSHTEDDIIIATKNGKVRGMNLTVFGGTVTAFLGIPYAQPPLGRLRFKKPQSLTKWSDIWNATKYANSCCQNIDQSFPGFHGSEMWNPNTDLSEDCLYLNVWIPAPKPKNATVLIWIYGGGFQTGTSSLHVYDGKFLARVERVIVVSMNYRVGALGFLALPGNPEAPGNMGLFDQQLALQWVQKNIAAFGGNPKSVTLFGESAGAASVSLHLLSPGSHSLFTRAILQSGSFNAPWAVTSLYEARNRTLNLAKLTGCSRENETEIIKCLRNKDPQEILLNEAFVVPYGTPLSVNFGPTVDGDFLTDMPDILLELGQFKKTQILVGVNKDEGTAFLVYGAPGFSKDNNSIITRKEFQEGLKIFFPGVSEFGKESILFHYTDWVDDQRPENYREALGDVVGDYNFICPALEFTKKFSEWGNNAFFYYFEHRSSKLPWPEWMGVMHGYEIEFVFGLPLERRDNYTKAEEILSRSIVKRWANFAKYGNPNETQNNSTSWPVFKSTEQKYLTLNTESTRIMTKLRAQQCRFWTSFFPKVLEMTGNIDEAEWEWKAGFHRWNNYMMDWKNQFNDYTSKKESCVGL", "assay": "Inhibition of BchE in human plasma incubated for 30 mins using butyrylthiocholine substrate at 37 degC by DTNB dye based spectrophotometry"}, "[4]": {"tested_on": "Escherichia coli", "assay": "Antimicrobial activity against Escherichia coli ATCC 25922 incubated for 24 hrs by microtiter plate dilution method", "format": "functional"}, "[5]": {"target": "T1, Cholinesterase", "assay": "Inhibition of BchE in human plasma at 1 mg/ml incubated for 30 mins using butyrylthiocholine substrate at 37 degC by DTNB dye based spectrophotometry"}, "[6]": {"tested_on": "Enterococcus faecalis", "assay": "Antimicrobial activity against Enterococcus faecalis ATCC 29212 incubated for 24 hrs by microtiter plate dilution method", "format": "functional"}, "[7]": {"tested_on": "Pseudomonas aeruginosa", "assay": "Antimicrobial activity against Pseudomonas aeruginosa ATCC 27853 incubated for 24 hrs by microtiter plate dilution method", "format": "functional"}, "[8]": {"assay": "Antioxidant activity assessed as catalase activity by measuring hydrogen peroxide disappearance per mg protein measured for 1 min at 25 degC", "format": "physicochemical"}, "[9]": {"assay": "Antioxidant activity assessed as ABTS radical scavenging activity incubated for 6 mins", "format": "physicochemical"}, "[10]": {"assay": "Antioxidant activity assessed as ferric-reducing antioxidant power after 20 mins at 50 degC by UV spectrophotometry", "format": "physicochemical"}}, "note": "Active and inactive are the calls of the source. The calls are words filed in the database; no cut-off is given here."}
{"compound": "CC(C)(O)CC[C@@H](O)[C@](C)(O)[C@H]1CC[C@@]2(O)C3=CC(=O)[C@@H]4C[C@@H](O)[C@@H](O)C[C@]4(C)[C@H]3CC[C@]12C", "note": "[20-HYDROXYECDYSONE]", "values": [{"measurement": "MIC", "setting": "[1]; ATCC 25923, 24 h", "value": 125, "unit": "µg/mL"}, {"measurement": "IC50", "setting": "[2]", "value": 155.82, "unit": "µg/mL"}, {"measurement": "IC50", "setting": "[3]; read-out: IC50 (converted)", "value": 1050, "unit": "µM"}, {"measurement": "MIC", "setting": "[4]; ATCC 25922, 24 h", "value": 125, "unit": "µg/mL"}, {"measurement": "inhibition", "setting": "[5]", "value": 71.2, "unit": "%"}, {"measurement": "MIC", "setting": "[6]; ATCC 29212, 24 h", "value": 125, "unit": "µg/mL"}, {"measurement": "MIC", "setting": "[7]; ATCC 27853, 24 h", "value": 62, "unit": "µg/mL"}, {"measurement": "Activity", "setting": "[8]", "value": 112.35, "unit": "µmol/min"}, {"measurement": "IC50", "setting": "[9]", "value": 98.74, "unit": "µg/mL"}, {"measurement": "IC50", "setting": "[10]", "value": 262.45, "unit": "µg/mL"}]}
{"compound": "CCCCOC1(O)COC[C@@H](O)[C@@H](O)[C@H]1O", "note": "(some centres not stated)", "values": [{"measurement": "MIC", "setting": "[1]", "value": "inactive"}, {"measurement": "IC50", "setting": "[2]", "value": "Not Active"}, {"measurement": "IC50", "setting": "[3]", "value": "Not Active"}, {"measurement": "MIC", "setting": "[4]", "value": "inactive"}, {"measurement": "MIC", "setting": "[6]", "value": "inactive"}, {"measurement": "MIC", "setting": "[7]", "value": "inactive"}, {"measurement": "Activity", "setting": "[8]", "value": "Not Active"}, {"measurement": "IC50", "setting": "[9]", "value": "Not Active"}, {"measurement": "IC50", "setting": "[10]", "value": "Not Active"}]}
{"compound": "CO[C@]1(O[C@@H](CCC(C)(C)O)[C@](C)(O)[C@H]2CC[C@@]3(O)C4=CC(=O)[C@@H]5C[C@@H](O)[C@@H](O)C[C@]5(C)[C@H]4CC[C@]23C)COC[C@@H](O)[C@@H](O)[C@H]1O", "values": [{"measurement": "MIC", "setting": "[1]; ATCC 25923, 24 h", "value": 125, "unit": "µg/mL"}, {"measurement": "IC50", "setting": "[2]", "value": 180.26, "unit": "µg/mL"}, {"measurement": "IC50", "setting": "[3]; read-out: IC50 (converted)", "value": 837, "unit": "µM"}, {"measurement": "MIC", "setting": "[4]; ATCC 25922, 24 h", "value": 62, "unit": "µg/mL"}, {"measurement": "inhibition", "setting": "[5]", "value": 68.3, "unit": "%"}, {"measurement": "MIC", "setting": "[6]; ATCC 29212, 24 h", "value": 125, "unit": "µg/mL"}, {"measurement": "MIC", "setting": "[7]; ATCC 27853, 24 h", "value": 125, "unit": "µg/mL"}, {"measurement": "Activity", "setting": "[8]", "value": 159.62, "unit": "µmol/min"}, {"measurement": "IC50", "setting": "[9]", "value": 111.24, "unit": "µg/mL"}, {"measurement": "IC50", "setting": "[10]", "value": 288.36, "unit": "µg/mL"}]}
{"compound": "O=C1O[C@H]([C@@H](O)CO)C(O)=C1O", "note": "[ASCORBIC ACID]", "values": [{"measurement": "Activity", "setting": "[8]", "value": 757.575, "unit": "µmol/min"}]}
{"compound": "Cc1c(C)c2c(c(C)c1O)CCC(C)(C(=O)O)O2", "note": "(configuration not stated) [TROLOX]", "values": [{"measurement": "IC50", "setting": "[2]", "value": 14.56, "unit": "µg/mL"}, {"measurement": "IC50", "setting": "[9]", "value": 2.02, "unit": "µg/mL"}, {"measurement": "IC50", "setting": "[10]", "value": 47.32, "unit": "µg/mL"}]}
{"compound": "CN[C@H](CC(C)C)C(=O)N[C@H]1C(=O)N[C@@H](CC(N)=O)C(=O)N[C@H]2C(=O)N[C@H]3C(=O)N[C@H](C(=O)N[C@H](C(=O)O)c4cc(O)cc(O)c4-c4cc3ccc4O)[C@H](O)c3ccc(c(Cl)c3)Oc3cc2cc(c3O[C@@H]2O[C@H](CO)[C@@H](O)[C@H](O)[C@H]2O[C@H]2C[C@](C)(N)[C@H](O)[C@H](C)O2)Oc2ccc(cc2Cl)[C@H]1O", "note": "[VANCOMYCIN]", "values": [{"measurement": "MIC", "setting": "[1]; ATCC 25923, 24 h", "value": 3, "unit": "µg/mL"}, {"measurement": "MIC", "setting": "[4]; ATCC 25922, 24 h", "value": 1, "unit": "µg/mL"}, {"measurement": "MIC", "setting": "[6]; ATCC 29212, 24 h", "value": 62, "unit": "µg/mL"}, {"measurement": "MIC", "setting": "[7]; ATCC 27853, 24 h", "value": 1, "unit": "µg/mL"}]}
